Reference: patent publication US12091425B2 (AMGEN INC., priority 2016, dated 2024)

What was measured:
[1] = target: T1, Mcl-1/Bim interaction, recombinant human Mcl-1 (171-327) (Homo sapiens, UniProt Q07820); assay: Cell free Mcl-1: Bim Affinity Assay (Mcl-1 HTRF); assay type: binding; settings: TR-FRET, 0.1 nM Mcl-1 (171-327), 0.05 nM biotin-Bim (51-76)
T1 construct: made in house
Outline: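 Biotin-Bim(51-76) peptide, TR-FRET readout, overnight incubation; IC50 from duplicate competition curves, 4-parameter fit.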

[2] = test system: OPM-2 human multiple myeloma cell line; assay: Cell Viability Assay (OPM-2 10 FBS); assay type: cell-based; settings: OPM-2 cells, 16 h, CellTiter-Glo
Outline: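 IC50 from 4-parameter logistic fit of CellTiter-Glo luminescence. 3000 cells/well, 10% FBS medium, serial compound dilutions, 16 h, 37 °C/5% CO2; read 25 min post-reagent.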

T1 sequence (Q07820 171-327): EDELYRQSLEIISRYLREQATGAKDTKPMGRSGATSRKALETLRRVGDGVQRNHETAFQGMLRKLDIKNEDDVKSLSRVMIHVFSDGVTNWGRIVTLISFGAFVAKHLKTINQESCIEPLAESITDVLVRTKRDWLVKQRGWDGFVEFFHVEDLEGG

C[C@@H]1[C@@H](C)C/C=C/[C@H](OCC(=O)N2CC(F)(F)C2)[C@@H]2CC[C@H]2CN2C[C@@]3(CCCc4cc(Cl)ccc43)COc3ccc(cc32)C(=O)NS1(=O)=O [Example 308, (1S,3′R,6′R,7′S,8′E,11′S,12′R)-6-chloro-7′-(2-(3,3-difluoro-1-azetidinyl)-2-oxoethoxy)-11′,12′-dimethyl-3,4-dihydro-2H,15′H-spiro[naphthalene-1,22′-[20]oxa[13]thia[1,14]diazatetracyclo[14.7.2.0^3,6.0^19,24]pentacosa [8,16,18,24]tetraen]-15′-one 13′,13′-dioxide]
IC50 [1]: 0.382 nM
IC50 ([2]; Homo sapiens, OPM-2, 16 h): 214 nM

C[C@@H]1[C@@H](C)C/C=C/[C@H](OCC(=O)N2CC(N3CCCC3)C2)[C@@H]2CC[C@H]2CN2C[C@@]3(CCCc4cc(Cl)ccc43)COc3ccc(cc32)C(=O)NS1(=O)=O [Example 309, (1S,3′R,6′R,7′S,8′E,11′S,12′R)-6-chloro-11′,12′-dimethyl-7′-(2-oxo-2-(3-(1-pyrrolidinyl)-1-azetidinyl)ethoxy)-3,4-dihydro-2H,15′H-spiro[naphthalene-1,22′-[20]oxa[13]thia[1,14]diazatetracyclo[14.7.2.0^3,6.0^19,24]pentacosa [8,16,18,24]tetraen]-15′-one 13′,13′-dioxide]
IC50 [1]: 0.0805 nM
IC50 ([2]; Homo sapiens, OPM-2, 16 h): 414 nM

C[C@@H]1[C@@H](C)C/C=C/[C@H](OCC(=O)N2CC[C@H](O)C2)[C@@H]2CC[C@H]2CN2C[C@@]3(CCCc4cc(Cl)ccc43)COc3ccc(cc32)C(=O)NS1(=O)=O [Example 310, (1S,3′R,6′R,7′S,8′E,11′S,12′R)-6-chloro-7′-(2-((3S)-3-hydroxy-1-pyrrolidinyl)-2-oxoethoxy)-11′,12′-dimethyl-3,4-dihydro-2H,15′H-spiro[naphthalene-1,22′-[20]oxa[13]thia[1,14]diazatetracyclo[14.7.2.0^3,6.0^19,24]pentacosa [8,16,18,24]tetraen]-15′-one 13′,13′-dioxide]
IC50 [1]: 0.109 nM
IC50 ([2]; Homo sapiens, OPM-2, 16 h): 792 nM

C[C@@H]1[C@@H](C)C/C=C/[C@H](OCC(=O)N2CC[C@@H](O)C2)[C@@H]2CC[C@H]2CN2C[C@@]3(CCCc4cc(Cl)ccc43)COc3ccc(cc32)C(=O)NS1(=O)=O [Example 311, (1S,3′R,6′R,7′S,8′E,11′S,12′R)-6-chloro-7′-(2-((3R)-3-hydroxy-1-pyrrolidinyl)-2-oxoethoxy)-11′,12′-dimethyl-3,4-dihydro-2H,15′H-spiro[naphthalene-1,22′-[20]oxa[13]thia[1,14]diazatetracyclo[14.7.2.0^3,6.0^19,24]pentacosa [8,16,18,24]tetraen]-15′-one 13′,13′-dioxide]
IC50 [1]: 0.138 nM
IC50 ([2]; Homo sapiens, OPM-2, 16 h): 1400 nM

C[C@@H]1[C@@H](C)C/C=C/[C@H](OCC(=O)N2CCC(O)CC2)[C@@H]2CC[C@H]2CN2C[C@@]3(CCCc4cc(Cl)ccc43)COc3ccc(cc32)C(=O)NS1(=O)=O [Example 312, (1S,3′R,6′R,7′S,8′E,11′S,12′R)-6-chloro-7′-(2-(4-hydroxy-1-piperidinyl)-2-oxoethoxy)-11′,12′-dimethyl-3,4-dihydro-2H,15′H-spiro[naphthalene-1,22′-[20]oxa[13]thia[1,14]diazatetracyclo[14.7.2.0^3,6.0^19,24]pentacosa [8,16,18,24]tetraen]-15′-one 13′,13′-dioxide]
IC50 [1]: 0.153 nM
IC50 ([2]; Homo sapiens, OPM-2, 16 h): 1000 nM

C[C@@H]1[C@@H](C)C/C=C/[C@H](OCC(=O)N2CCOCC2)[C@@H]2CC[C@H]2CN2C[C@@]3(CCCc4cc(Cl)ccc43)COc3ccc(cc32)C(=O)NS1(=O)=O [Example 313, (1S,3′R,6′R,7′S,8′E,11′S,12′R)-6-chloro-11′,12′-dimethyl-7′-(2-(4-morpholinyl)-2-oxoethoxy)-3,4-dihydro-2H,15′H-spiro[naphthalene-1,22′-[20]oxa[13]thia[1,14]diazatetracyclo[14.7.2.0^3,6.0^19,24]pentacos [8,16,18,24]tetraen]-15′-one 13′,13′-dioxide]
IC50 [1]: 0.185 nM
IC50 ([2]; Homo sapiens, OPM-2, 16 h): 220 nM

C[C@@H]1[C@@H](C)C/C=C/[C@H](OCC(=O)N2CCNC(=O)C2)[C@@H]2CC[C@H]2CN2C[C@@]3(CCCc4cc(Cl)ccc43)COc3ccc(cc32)C(=O)NS1(=O)=O [Example 314, (1S,3′R,6′R,7′S,8′E,11′S,12′R)-6-chloro-11′,12′-dimethyl-7′-(2-oxo-2-(3-oxo-1-piperazinyl)ethoxy)-3,4-dihydro-2H,15′H-spiro[naphthalene-1,22′-[20]oxa[13]thia[1,14]diazatetracyclo[14.7.2.0^3,6.0^19,24]pentacosa [8,16,18,24]tetraen]-15′-one 13′,13′-dioxide]
IC50 [1]: 0.136 nM
IC50 ([2]; Homo sapiens, OPM-2, 16 h): 2120 nM

C[C@@H]1[C@@H](C)C/C=C/[C@H](OCC(=O)N2CCC(F)(F)CC2)[C@@H]2CC[C@H]2CN2C[C@@]3(CCCc4cc(Cl)ccc43)COc3ccc(cc32)C(=O)NS1(=O)=O [Example 315, (1S,3′R,6′R,7′S,8′E,11′S,12′R)-6-chloro-7′-(2-(4,4-difluoro-1-piperidinyl)-2-oxoethoxy)-11′,12′-dimethyl-3,4-dihydro-2H,15′H-spiro[naphthalene-1,22′-[20]oxa[13]thia[1,14]diazatetracyclo[14.7.2.0^3,6.0^19,24]pentacosa [8,16,18,24]tetraen]-15′-one 13′,13′-dioxide]
IC50 [1]: 0.774 nM
IC50 ([2]; Homo sapiens, OPM-2, 16 h): 421 nM

C[C@@H]1[C@@H](C)C/C=C/[C@H](OCC(=O)N2CCN(C)CC2)[C@@H]2CC[C@H]2CN2C[C@@]3(CCCc4cc(Cl)ccc43)COc3ccc(cc32)C(=O)NS1(=O)=O [Example 316, (1S,3′R,6′R,7′S,8′E,11′S,12′R)-6-chloro-11′,12′-dimethyl-7′-(2-(4-methyl-1-piperazinyl)-2-oxoethoxy)-3,4-dihydro-2H,15′H-spiro[naphthalene-1,22′-[20]oxa[13]thia[1,14]diazatetracyclo[14.7.2.0^3,6.0^19,24]pentacosa [8,16,18,24]tetraen]-15′-one 13′,13′-dioxide]
IC50 [1]: 0.0986 nM
IC50 ([2]; Homo sapiens, OPM-2, 16 h): 162 nM

C[C@@H]1[C@@H](C)C/C=C/[C@H](OCc2ncccn2)[C@@H]2CC[C@H]2CN2C[C@@]3(CCCc4cc(Cl)ccc43)COc3ccc(cc32)C(=O)NS1(=O)=O [Example 317, (1S,3′R,6′R,7′S,8′E,11′S,12′R)-6-chloro-11′,12′-dimethyl-7′-(2-pyrimidinylmethoxy)-3,4-dihydro-2H,15′H-spiro[naphthalene-1,22′-[20]oxa[13]thia[1,14]diazatetracyclo[14.7.2.0^3,6.0^19,24]pentacosa [8,16,18,24]tetraen]-15′-one 13′,13′-dioxide]
IC50 [1]: 0.223 nM
IC50 ([2]; Homo sapiens, OPM-2, 16 h): 196 nM

O=C1NS(=O)(=O)N2CCC[C@@H]2C/C=C/[C@H](O)[C@@H]2CC[C@H]2CN2C[C@@]3(CCCc4cc(Cl)ccc43)COc3ccc1cc32 [Example 347, (1S,3′R,6′R,7′S,8′E,11R)-6-chloro-7′-hydroxy-3,4-dihydro-2H,18′H-spiro[naphthalene-1,25′-[23]oxa[16]thia[1,15,17]triazapentacyclo[17.7.2.0^3,6.0^11,15.0^22,27]octacosa[8,19,21,27]tetraen]-18′-one 16′,16′-dioxide]
IC50 [1]: 7.22 nM
IC50 [2]: 5550 nM
